Source: patent EP0696280B1, “SUBSTITUTED PYRROLIDIN-3-YL-ALKYL-PIPERIDINES USEFUL AS TACHYKININ ANTAGONISTS” (MERRELL PHARMACEUTICALS INC., priority 1993, dated 1994)
Where a name gives a salt, the structure may show the parent alone. Read-outs that look alike come from different tables or passages of the source.

Legend:
NK1 receptor [1] = target: T1, NK1 receptor (Cavia porcellus, UniProt P30547); assay: Antagonism of iodinated tachykinin binding to NK1 receptor (125I-Bolton Hunter Lys-3 labeled substance P, guinea pig lung membranes)
T1 construct: Tissues or cells were homogenized with a Polytron in 15 volumes of 50 mM Tris-HCl buffer; tissue Keystone Biologicals, Cleveland, OH; host or cells: guinea pig lung membranes
Method: The NK1 receptor affinity of proposed tachykinin antagonists was devaluated in guinea pig lungs (Keystone Biologicals, Cleveland, OH), affinity for the NK2 receptor evaluated in HSKR-1 cells (which are mouse 3T3 fibroblasts expressing the human jejunal NK2 receptor) and NK-3 receptor affinity was evaluated in freshly collected guinea pig cerebral cortex. Tissues or cells were homogenized with a Polytron in 15 volumes of 50 mM Tris-HCl buffer (pH 7.4, 4°C) and centrifuged. The pellet was resuspended in Tris-HCl buffer and was centrifuged; the pellet was washed twice by resuspension. The final pellet was resuspended at a concentration of 40 mg/ml for tissues (guinea pig lung and cerebral cortex) and 20 mg/ml for cells in incubation buffer and remained at room temperature for at least 15 min prior to use. Receptor binding was initiated by addition of 250 µl membrane preparation in duplicate to 0.1 nM of the following radioligands: ^125I-Bolton Hunter Lys-3 labeled substance P; ^125iodohistidyl-1-neurokinin A; and ^125I-Bolton Hunter labeled Lys-4 eledoisin in a final volume of 500 µl of buffer containing 50 mM Tris-HCl (pH 7.4 at room temperature), 0.1% bovine serum albumin, 2 mM MnCl2, 40 µg/ml bacitracin, 4 µg/ml leupeptin and chymostatin, 1 µM thiorphan and various doses of the putative tachykinin antagonists. Incubations were performed at room temperature for 90 min (NK1 receptor assays) or 2 hr (NK2 and NK3 receptor assays); binding was terminated by addition of 50 mM Tris-HCl buffer (pH 7.4, 4°C) and filtration under vacuum through GF/B filters presoaked with 0.1% polyethyleneimine (NK1 receptor assays) or 0.5% bovine serum albumin (NK2 and NK3 receptor assays). Filter bound radioactivity was quantitated in a gamma counter. Nonspecific binding was defined as binding in the presence of 1 µM substance P, neurokinin A, or eledoisin. Specific binding was calculated by subtracting nonspecific binding from total binding. Competition of iodinated SP, NKA, or eledoisin binding by test compounds or standards was expressed as a percentage of this maximum competition. IC50 values (concentration required to inhibit 50% of receptor binding) were generated for each of the test compounds by nonlinear regression using an iterative curve fitting program (GraphPAD Inplot, San Diego, CA).

NK1 receptor [2] = target: T2, NK1 receptor (Homo sapiens, UniProt P25103); assay: Antagonism of NK1 receptor mediated (SP-induced) phosphatidylinositol turnover in UC11 cells; format: cell-based
T2 construct: endogenous in cells; host or cells: UC11 cells
Method: Tachykinin-mediated inositol phosphate accumulation was measured in UCll or SKLKB82#3 cells in the presence and absence of NK1 or NK2 receptor antagonists, respectively. Tissues were incubated in Krebs-Henseleit buffer at 37°C with 95% O2-5% CO2 gassing. Tissues were then incubated with fresh buffer containing 100 µCi of myo-[2-^3H(N)] inositol at 37°C for 60 min with gentle gassing. After washing twice at room temperature in 5 ml buffer containing 10 mM LiCl, tissues were incubated for 30 min at room temperature with a buffer change at 15 min. Buffer was removed and Krebs-Henseleit buffer (containing 40 µg/ml bacitracin, 4 µg/ml each of leupeptin and chymostatin, 0.1% bovine serum albumin and 10 mM each of thiorphan and LiCl) added. After 15 min, SP was added to UCll cells or NKA to SKLKB82#3 cells at various concentrations to start the reaction. After incubation for 60 min at room temperature the reaction was terminated by addition of 930 µl chloroform: methanol (1:2 by volume) to each tube, followed by 310 µl chloroform and 310 µl doubly distilled water. Samples were vortexed, centrifuged, and 0.9 ml of the aqueous (top) phase removed and added to 2 ml ddH2O. The mixture was vortexed and loaded onto a 50% Bio-Rad AG 1-X8 (formate form, 100-200 mesh) exchange column (Bio-Rad Laboratories, Hercules, CA). The columns were washed, in order, with: 1) 10 ml doubly distilled water, 2) 5 ml of 5 mM disodium tetraborate/60 mM sodium formate, and 3) 5 ml of 1 M ammonium formate/0.1 M formic acid. The third elution was collected and 1 ml counted in 7 ml scintillation fluid. A 50 µl aliquot of the organic (bottom) phase was removed, dried in a scintillation vial and counted in 7 ml scintillation fluid.
The ratio of DPM in the aqueous phase aliquot (total inositol phosphates) to the DPM in the 50 µl organic phase aliquot (total [^3H]inositol incorporated) was calculated for each sample. Data are expressed as a percent of agonist-induced accumulation of [^3H]-inositol phosphates over basal levels. The ratios in the presence of test compound and/or standards were compared to the ratios for control samples (i.e. no stimulating agonist). Dose-response graphs were constructed and the abilities of the test compounds to inhibit tachykinin-induced phosphatidylinositol turnover determined with the aid of a computer program. […] Data is expressed as percent stimulation of total inositol phosphate accumulation over basal levels and normalized to the maximum response produced by SP. […] Schild analysis is performed using dose response curves (such as those presented in Figures 1a and 1b) to obtain a value indicative of the strength of a competitive antagonist and is expressed as the pA2, which is the negative logarithm of the molar concentration of antagonist which reduces the effect of a dose of agonist to one-half of that expected at the dose of agonist. […]
Values are mean (95% confidence limits) derived from Schild analysis of 2-3 experiments per compound per receptor.

[3] = Schild analysis, SP in UC11 cells, mean (95% confidence limits), 2-3 experiments

T1 sequence (P30547 whole entry): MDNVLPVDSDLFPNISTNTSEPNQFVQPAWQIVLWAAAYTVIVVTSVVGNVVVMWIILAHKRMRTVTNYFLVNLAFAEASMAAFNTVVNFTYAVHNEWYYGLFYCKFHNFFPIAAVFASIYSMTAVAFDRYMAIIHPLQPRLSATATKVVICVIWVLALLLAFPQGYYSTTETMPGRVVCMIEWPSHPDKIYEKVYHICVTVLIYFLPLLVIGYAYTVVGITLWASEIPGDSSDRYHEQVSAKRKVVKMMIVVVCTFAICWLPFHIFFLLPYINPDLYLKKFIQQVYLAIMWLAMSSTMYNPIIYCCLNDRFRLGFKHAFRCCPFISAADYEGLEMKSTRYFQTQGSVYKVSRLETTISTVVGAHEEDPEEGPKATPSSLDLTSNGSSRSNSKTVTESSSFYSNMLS
T2 sequence (P25103 whole entry): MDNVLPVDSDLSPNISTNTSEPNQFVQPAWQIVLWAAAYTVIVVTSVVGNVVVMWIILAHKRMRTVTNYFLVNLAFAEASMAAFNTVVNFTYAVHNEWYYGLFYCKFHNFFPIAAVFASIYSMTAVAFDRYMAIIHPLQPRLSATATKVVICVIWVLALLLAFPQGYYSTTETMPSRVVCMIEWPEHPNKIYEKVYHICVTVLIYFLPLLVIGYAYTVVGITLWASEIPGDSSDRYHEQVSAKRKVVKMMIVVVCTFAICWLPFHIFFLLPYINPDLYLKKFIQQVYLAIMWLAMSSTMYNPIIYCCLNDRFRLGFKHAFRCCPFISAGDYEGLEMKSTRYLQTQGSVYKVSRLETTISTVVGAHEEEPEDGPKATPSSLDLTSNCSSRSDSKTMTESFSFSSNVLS

COc1cc(C(=O)N2CCC(CCN3CCC(C(N)=O)(c4ccccc4)CC3)(c3ccc(Cl)c(Cl)c3)C2)cc(OC)c1OC (racemic) [Example 3A, 1-[2-[3-(3,4-dichloro-phenyl-3-yl)-1-(3,4,5-trimethoxy-benzoyl)-pyrrolidin-3-yl]-ethyl] -4-phenyl-piperidine-4-carboxylic acid amide hydrochloride] was tested, and the IC50 (NK1 receptor [1]) was 5.97 nM, the “NK-1 RECEPTOR -SLOPE” value (NK1 receptor [2]; [3]) was 0.90 (0.65-1.15) and the Kb (NK1 receptor [2]; Schild analysis, SP in UC11 cells, mean (95% confidence limits), 2-3 experiments, read-out: NK-1 RECEPTOR pA2 (converted)) was 12.3 nM.

COc1cccc(OC)c1C(=O)N1CCC(CCN2CCC(C(N)=O)(c3ccccc3)CC2)(c2ccc(Cl)c(Cl)c2)C1 (racemic) [Example 5A, 1-[2-[3-(3,4-dichloro-phenyl-3-yl)-1-(2,6-dimethoxy-benzoyl)-pyrrolidin-3-yl]-ethyl]-4-phenyl-piperidine-4-carboxylic acid amide hydrochloride] was tested, and the IC50 (NK1 receptor [1]) was 20 nM, the Kb (NK1 receptor [2]) was 47.9 nM and the “NK-1 RECEPTOR -SLOPE” value (NK1 receptor [2]; [3]) was 1.17 (0.41-1.93).

In the case of COc1cc(C(=O)N2CCC(CCN3CCC(C(N)=O)(c4ccccc4)CC3)(c3ccc(Cl)c(Cl)c3)C2)cc(OC)c1OC (stereo not drawn) [Example 3, 1-[2-[3-(3,4-dichloro-phenyl)-1-(3,4,5-trimethoxy-benzoyl)-pyrrolidin-3-yl]-ethyl]-4-phenyl-piperidine-4-carboxylic acid amide], the IC50 (NK1 receptor [1]) is reported as 5 nM, the “affinity for NK1 receptors” value (NK1 receptor [1]; result in words) is reported as “high affinity” and the “antagonism of the receptor mediated SP induced PI turnover” value (NK1 receptor [2]; UC11 cells, Figure 1a, result in words) is reported as “dose related antagonism”.
